In PubChem BioAssay (NCI):
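In this assay, cells in 96-well plates receive the compound at five concentrations for 48 hours. Endpoints are linearly interpolated between the surrounding concentrations. The concentration for 50% growth inhibition is given as GI50. The concentration for full growth arrest is given as TGI.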

Experiments:
Assay in all cases: growth of human tumour cells (NCI), 48 h
HCT-15 colon = tested on: HCT-15 colon
OVCAR-3 ovarian = tested on: OVCAR-3 ovarian
SW-620 colon = tested on: SW-620 colon
HOP-62 NSCLC = tested on: HOP-62 NSCLC
CAKI-1 renal = tested on: CAKI-1 renal
RPMI-8226 leukemia = tested on: RPMI-8226 leukemia
MOLT-4 leukemia = tested on: MOLT-4 leukemia
HOP-92 NSCLC = tested on: HOP-92 NSCLC
MCF7 breast = tested on: MCF7 breast
MDA-MB-231 breast = tested on: MDA-MB-231 breast

| Compound | TGI (HCT-15 colon) [µM] | TGI (OVCAR-3 ovarian) [µM] | TGI (SW-620 colon) [µM] | TGI (HOP-62 NSCLC) [µM] | TGI (CAKI-1 renal) [µM] | TGI (RPMI-8226 leukemia) [µM] | TGI (MOLT-4 leukemia) [µM] | TGI (HOP-92 NSCLC) [µM] | GI50 (HCT-15 colon) [µM] | GI50 (SW-620 colon) [µM] | GI50 (HOP-62 NSCLC) [µM] | GI50 (MCF7 breast) [µM] | TGI (MCF7 breast) [µM] | GI50 (MDA-MB-231 breast) [µM] | TGI (MDA-MB-231 breast) [µM] | GI50 (RPMI-8226 leukemia) [µM] | GI50 (MOLT-4 leukemia) [µM] | GI50 (OVCAR-3 ovarian) [µM] | GI50 (CAKI-1 renal) [µM] | GI50 (HOP-92 NSCLC) [µM] |
| --- | --- | --- | --- | --- | --- | --- | --- | --- | --- | --- | --- | --- | --- | --- | --- | --- | --- | --- | --- | --- |
| CS(=O)(=O)N(CCC#N)c1ccc(/C=N/NC(=O)CC(=O)Nc2cccc(Cl)c2)cc1 | > 100 | > 100 | > 100 | > 100 | > 100 | > 100 | > 100 |  |  |  |  |  |  |  |  |  |  |  |  |  |
| COc1ccc(S(=O)(=O)N/N=C/CN2C(=O)c3ccccc3C2=O)cc1OC | > 100 | > 100 | > 100 | > 100 | > 100 | > 100 | > 100 |  |  |  |  |  |  |  |  |  |  |  |  |  |
| CC(C)COC(=O)N1N=NC2C3OC(CC3=O)C21 (stereo unspecified) | > 100 | > 100 | > 100 | > 100 | > 100 | > 100 | > 100 | > 100 |  |  |  |  |  |  |  |  |  |  |  |  |
| C=CCC12CCC(=O)C=C1CCC1(C2)OCCO1 (stereo unspecified) | > 100 | > 100 | > 100 | > 100 | > 100 | > 100 | > 100 |  |  |  |  |  |  |  |  |  |  |  |  |  |
| CCOC(=O)C(=O)C1C(=O)Nc2ccccc21 (stereo unspecified) |  | > 100 | > 100 | > 100 | > 100 | > 100 | > 100 | > 100 |  |  |  |  |  |  |  |  |  |  |  |  |
| CN(C)/C=C/c1nnnn1-c1ccc(Cl)cc1 | 80 |  | 49.8 | 46.9 |  | 18.5 | > 100 |  | 5.04 | 10.7 | 11.4 | 6.03 | 24.8 | 16.1 | > 100 | 3.38 | 3.51 |  |  |  |
| Oc1ccc2occ3c2c1CCC3 | > 100 | > 100 | > 100 | > 100 | > 100 | > 100 | > 100 | 80.1 |  |  |  |  |  |  |  |  |  |  |  |  |
| CC1=C(C)CC2(SC1)C(=O)c1ccccc1C2=O | > 100 |  | > 100 | > 100 | > 100 | > 100 | > 100 | > 100 |  |  |  |  |  |  |  |  |  |  |  |  |
| O=C(O)CNS(=O)(=O)c1ccc(NC(=O)c2ccc(F)cc2)cc1 | > 100 | > 100 | > 100 |  | > 100 | > 100 | > 100 | > 100 |  |  |  |  |  |  |  |  |  |  |  |  |
| CCN(CC)CC(=O)/C=C/c1ccc(C)cc1 | 46 | 45.1 | 30.3 | > 100 | 31.7 | > 100 | > 100 | 92.4 |  |  |  |  |  |  |  |  |  |  |  |  |
| CCN(CC)c1ccc(N=C2C=CC(=O)c3ncccc32)c(C)c1 | 10.8 | 11.4 | 7.12 | 37.2 | 23.4 | > 100 | 6.14 | 19.7 |  |  |  |  |  |  |  |  |  |  |  |  |
| CC1CCC2(NC1)OC1CC3[C@@H]4CC=C5C=CCC[C@]5(C)C4CC[C@]3(C)C1C2C (stereo partly specified) | 48.8 | 80.5 | 41.2 | 36.6 | > 100 | 46 | 66.3 | 61.8 |  |  |  |  |  |  |  |  |  |  |  |  |
| O=c1[nH]c(-c2ccccc2)nc2ccc(Cl)cc12 | > 100 | > 100 | > 100 |  | > 100 | > 100 | > 100 | 84.1 |  |  |  |  |  |  |  |  |  |  |  |  |
| O=c1[nH]c(=O)n(C2CC(O)C(CO)O2)cc1C(OCC(F)(F)F)OCC(F)(F)F (stereo unspecified) |  | > 100 | > 100 | > 100 | > 100 | > 100 | > 100 | > 100 |  |  |  |  |  |  |  |  |  |  |  |  |
| CC(=O)NC1=C(C)C(=O)c2c(nc3n2CCC3O)C1=O (stereo unspecified) | > 100 | > 46.1 | > 100 | > 100 | > 100 | 50.6 | 16.6 | 33.3 |  |  |  |  |  |  |  |  |  |  |  |  |
| OCCN(CCO)c1cccc(N(CCO)CCO)c1 | > 100 | > 100 | > 100 | > 100 | > 100 | > 100 | > 100 | > 100 |  |  |  |  |  |  |  |  |  |  |  |  |
| Cn1cc(NC(=O)c2cc(NC(=O)Nc3cc(C(=O)Nc4cc(C(=O)NCCC(=N)N)n(C)c4)n(C)c3)cn2C)cc1C(=O)NCCC(=N)N | > 100 | > 100 | > 100 | > 100 | 92.1 |  | > 100 | > 100 |  |  |  |  |  |  |  |  |  |  |  |  |

| Compound | TGI (HCT-15 colon) [µM] | TGI (OVCAR-3 ovarian) [µM] | TGI (SW-620 colon) [µM] | TGI (HOP-62 NSCLC) [µM] | TGI (CAKI-1 renal) [µM] | TGI (RPMI-8226 leukemia) [µM] | TGI (MOLT-4 leukemia) [µM] | TGI (HOP-92 NSCLC) [µM] | GI50 (HCT-15 colon) [µM] | GI50 (SW-620 colon) [µM] | GI50 (HOP-62 NSCLC) [µM] | GI50 (MCF7 breast) [µM] | TGI (MCF7 breast) [µM] | GI50 (MDA-MB-231 breast) [µM] | TGI (MDA-MB-231 breast) [µM] | GI50 (RPMI-8226 leukemia) [µM] | GI50 (MOLT-4 leukemia) [µM] | GI50 (OVCAR-3 ovarian) [µM] | GI50 (CAKI-1 renal) [µM] | GI50 (HOP-92 NSCLC) [µM] |
| --- | --- | --- | --- | --- | --- | --- | --- | --- | --- | --- | --- | --- | --- | --- | --- | --- | --- | --- | --- | --- |
| CNS(=O)(=O)NN(C)S(=O)(=O)c1ccc(Cl)cc1 | > 100 | > 100 | > 100 | > 100 | > 100 | > 100 | > 100 |  |  |  |  |  |  |  |  |  |  |  |  |  |
| CNc1nc(C)c(-c2nc(Nc3cccc(S(N)(=O)=O)c3)ncc2F)s1 | 12.1 | 14.4 | 14.7 |  | 37.2 | 0.273 | 0.185 |  | 0.048 | 0.0283 | < 0.0201 | 0.0255 | 4.64 | 0.0416 | 5.98 | 0.0958 | 0.0309 | 0.0302 | 0.052 |  |
| COc1cc(N=Nc2ccccc2)cc(/C=N\[N-]C(N)=S)c1[O-].COc1cc(N=Nc2ccccc2)cc(/C=N\[N-]C(N)=S)c1[O-].[Fe+4] |  | > 100 | > 100 | 89.9 |  | > 100 | 44.9 | > 100 |  | 50.2 | 23.4 |  |  |  |  | 18.2 | 5.59 | > 100 |  | > 100 |
| NC1CCCCC1N.O=C([O-])P(=O)([O-])[O-].[Na+].[Pt+4] (stereo unspecified) |  | > 100 | > 100 | > 100 |  | > 100 | > 100 |  |  | 28.8 | > 100 |  |  |  |  | 22.2 | 29.1 | > 100 |  |  |
| C=C1C(=O)O[C@H]2[C@H]1CC/C(CNC(=O)/C=C/c1cccc(OC)c1)=C\CC[C@@]1(C)O[C@@H]21 | 2.54 | 2.45 | 2.33 | 14.8 | 2.68 | 4.97 | 7.36 | 3.38 | 1.05 | 0.958 | 3.17 |  |  | 1.79 | 4.07 | 1.31 | 2.12 | 1.1 | 1.31 | 1.03 |
| Cc1cc2c(cc1C)[n+](=O)c(C(=O)/C=C/c1ccc(Cl)cc1)c(C)n2[O-] | > 100 | > 100 | > 100 | 68.7 | > 100 | 60.5 | 73.5 | > 100 |  |  |  |  |  |  |  |  |  |  |  |  |
| CN(C)c1ccc(/C=C/C(=O)C(C)(C)C)cc1Br | 48.6 | > 100 | 60.2 | > 100 | 91.9 | 58.7 | 71.7 |  |  |  |  |  |  |  |  |  |  |  |  |  |
| NC(N)=N/N=C/c1c(-c2cccs2)nc2sccn12 | 28.8 | 18.1 | 28.2 | 23.3 | 16 | > 100 | 36.3 |  | 15.4 | 12.8 | 11.2 |  |  | 13.4 | 26.7 | 12.6 | 8.48 | 3.66 | 2.57 |  |
| N=S(=O)(c1ccccc1)c1ccccc1[N+](=O)[O-] (stereo unspecified) | > 100 | > 100 | > 100 | > 100 | > 100 | > 100 | > 100 |  |  |  |  |  |  |  |  |  |  |  |  |  |
| Cc1ccc(C(=O)O/N=C2/CCCCC2CN(C)C)cc1 (stereo unspecified) | > 100 | > 100 |  | > 100 | > 100 | > 100 | > 100 | > 100 |  |  |  |  |  |  |  |  |  |  |  |  |
| COc1cccc2c1C1(O)C2CCCC12OCCCO2 (stereo unspecified) | > 100 | > 100 | > 100 | > 100 | > 100 | > 100 | > 100 |  |  |  |  |  |  |  |  |  |  |  |  |  |
| ON(CCc1ccncc1)Cc1ccccc1 | > 100 | > 100 | > 100 | > 100 | > 100 | > 100 | > 100 | > 100 |  |  |  |  | > 100 |  |  |  |  |  |  |  |
| CCNc1c(C(=O)N(CC)CC)c(=O)[nH]c2ncccc12 | > 100 | > 100 | > 100 | > 100 | > 100 | > 100 | > 100 | > 100 |  |  |  |  |  |  |  |  |  |  |  |  |
| CSc1ccc(-c2cc(-c3ccc(NC(=O)CCCN4CCCC4)cc3)nc(-c3ccc(NC(=O)CCCN4CCCC4)cc3)c2)cc1 |  | 14.6 | 3.29 | 3.5 | 21.3 | 4.56 | 3.62 | 5.61 |  | 1.79 | 1.7 |  |  | 1.85 | 3.69 | 2.16 | 1.79 | 3.97 | 4.94 | 1.72 |
| O=S(=O)([O-])[O-].[Cl-].[NH2-].[NH2-].[NH2-].[NH2-].[Ru+3].c1ccc(-c2cccnc2)cc1 | > 100 | > 100 | > 100 | > 100 | > 100 | > 100 | > 100 | > 100 | > 100 | > 100 | > 100 |  |  |  |  | > 100 | > 100 | > 100 | > 100 | > 100 |
| CCNC(=O)/C=C/CCC#Cc1ccc(-c2ccc(-c3cccs3)s2)s1 | > 100 | > 100 | > 100 | > 100 | > 100 | > 100 | > 100 | > 100 |  |  |  |  |  |  |  |  |  |  |  |  |
